Laboratory results taken from patent US12180159B2, “Activators of the unfolded protein response” (The Board of Trustees of the University of Illinois, priority 2018, dated 2024).

Tests used:
[1] = test system: (BHPI-sensitive) parental T47D cells; experiment: Growth of parental T47D cells (MTS); assay type: cell-based, human; conditions: 100 nM and 1 μM, 4 days
Protocol: ERα containing T47D human breast cancer cells able to survive in 1 μM BHPI were selected by clonal outgrowth. The effect of 100 nM and 1 μM BHPI and (−)-105 on growth of the (BHPI-sensitive) parental T47D cells and partially BHPI-resistant T47D clones 1, 3, 8, and 11 was evaluated. 4,000 cells/well were plated. Cell number was determined by MTS assay from a standard curve of absorbance versus cell number. […] Thus, in 4 days (−)-105 killed some, but not all, of the resistant cells.

[2] = test system: protein synthesis in Caov-3 cells; experiment: Inhibition of protein synthesis (35S-methionine incorporation); assay type: cell-based, human; conditions: 1,000 nM
Protocol: ERα positive Caov-3, human ovarian cancer cells, were treated for the indicated times with 1,000 nM BHPI or 1,000 nM (−)-105. Cells were briefly labeled with ^35S-methionine. Incorporation of labeled ^35S-methionine into protein was determined by trichloroacetic acid precipitation and trapping of precipitated protein, but not free amino acids, in small Whatman hardened ashless filters. After solubilizing the protein in the filters with base and neutralization with acid, the samples were counted in a liquid scintillation counter. Shown is the average (n≥3) percent inhibition of protein synthesis compared to the 0-time sample. The near quantitative inhibition of protein synthesis by (−)-105 is consistent with (−)-105 inducing lethal hyperactivation of the PERK arm of the UPR. Even non-growing cells are constantly degrading protein and making new proteins. Cells in which nearly all (>90%) of protein synthesis is inhibited cannot grow and will ultimately die.

MDA-MB-231 cells = experiment: Cell death of MDA-MB-231 cells (annexin V-FITC / PI flow cytometry); assay type: cell-based, human; conditions: 24 hours
Protocol: (§1) FIG. 36. Discovery of SERK-F6 (also known as, C(−)-105, (−)-105, (R)-105, (−)-1, or (R)-1), a compound that kills ERα-positive cancer cells. a, Chemical structures of BHPI and racemic compound 1 (i.e. (±)-1), and their cytotoxic activity on T47D breast cancer cells after 24-hour incubations with concentrations as indicated in nM. Cells were stained with annexin V-FITC and PI dyes prior to analysis via flow cytometry. […] Cells were incubated with SERK-F6 or positive control, Raptinal, for 24 hours and then stained with annexin V-FITC and PI dyes and analyzed via flow cytometry. Error bars represent S.E.M of 3 independent replicates. c, IC50 values of SERK-F6 after 24-hour incubation against a panel of cancer cell lines grouped by their reported ERα status. Cell viability was measured by Alamar blue fluorescence and set relative to a vehicle control and a quantitative dead control treated with Raptinal. Error bars represent S.E.M of 3 independent experiments. d, Crystal violet staining of T47D cells after 24-hour incubations with compounds and concentrations as indicated. […] Cell number was determined by MTS.
(§2) Through a medicinal chemistry campaign, (±)-1 was discovered to show an unexpected cytotoxic phenotype (FIG. 36A). […] The dose dependent activity of SERK-F6 was determined against a panel of cancer cell lines (FIG. 36C and FIG. 37A) for ERα.

MCF-7 cells = assay type: cell-based
Protocol: as §1, §2

[3] = test system: MCF-7 ERα Y537S-luciferase cells; experiment: Long-term cell culture experiment, MCF-7Y537S cells; assay type: cell-based, human; conditions: conditions as FIG. 15
MCF-7 tumors = experiment: MCF-7 orthotopic tumor model; assay type: in vivo, mouse
Protocol: FIG. 39. SERK-F6 eradicates wild-type ERα tumors via hyperactivation of aUPR. a, MCF-7 orthotopic tumors were established in Nu/J ovariectomized mice supplemented with a 60 day E2 pellet (0.36 mg) and grown to ˜400 mm^3 (28 days to establish), randomized, then treated with vehicle daily (n=3), vehicle weekly (n=3), fulv. weekly (5 mg/mouse, s.c., n=6), SERK-F6 daily (10 or 40 mg/kg p.o.). Vehicle arms were averaged. p values: *: p<0.05, **: p<0.01, ***: p<0.001, ****: p<0.0001. Tumor images were taken at the end of the study (day 21) and are representative of all tumors (n=6). b-e, MCF-7 cells were orthotopically bi-laterally grafted and tumors were grown until total tumor burden was ˜ 400 mm^3 prior to daily treatment with vehicle or SERK-F6 (40 mg/kg p.o.). Mice (n=5 per arm) were sacrificed after 3 days (b,c) and 7 days (d,e) and tumors harvested. […] Vinculin (Vin) was used as a loading control. […] Error bars represent S.E.M.
FIG. 40. SERK-F6 is tolerated, reaches biologically relevant concentrations, and crosses the blood-brain barrier in vivo. a, Serum concentrations of SERK-F6 after indicated doses, route of administration, and time. Concentration was determined via LC/MS/MS analysis. […] AUC: Area Under the Curve, Cmax: maximum concentration, t1/2: half-life. c,d, Mice (CD-1) were treated with the indicated doses and times, then sacrificed and their serum and brains collected. Concentrations were determined via LC/MS/MS analysis. […] Treatment arms: vehicle daily (n=3), vehicle weekly (n=3), fulv. weekly (5 mg/mouse, s.c., n=6), SERK-F6 daily (10 or 40 mg/kg p.o.). Vehicle arms were combined. g, Mass of tumors harvested from mice. h, observed murine weight during this MCF-7 study (n=6). i,j, Tumor measurements for MCF-7 bilateral orthotopic model (n=4-5).
To probe the efficacy of SERK-F6 for killing ERα positive tumors, large MCF-7 tumors were grown and then intervened with therapy. […] The mice were then sacrificed prior to complete tumor eradication.

ERα cell lines = experiment: 24-hour crystal violet assay and long-term cell culturing; assay type: cell-based, human; conditions: 24-hour crystal violet assay and long-term culture
Protocol: as §1, with “indicated. Image is representative of 2 independent experiments. e,f, Long-term cell culture experiment with T47D, TDG, and TYS cells.” for “indicated.”, “MTS. […]” for “MTS.”
An important aspect for cytotoxic therapy is the ability to quantitatively kill a cell population. […]

## O=C1Nc2c(C(F)(F)F)cccc2C1(c1ccc(O)cc1)c1ccc(OC(F)(F)F)cc1 (single isomer, unassigned; (-)) [(−)-105, 3-(4-hydroxyphenyl)-3-(4-(trifluoromethoxy)phenyl)-7-(trifluoromethyl)indolin-2-one]
[1]
  growth / killing of parental T47D cells: killed all the T47D cells
[2]
  inhibition of the synthesis of new proteins: near-quantitative, inhibition
MDA-MB-231 cells
  effects in ERα negative MDA-MB-231 cells: minimal effects
MCF-7 cells
  cytotoxicity to ERα positive MCF-7 cells: cytotoxic
MCF-7 cells; FIG. 10
  death of MCF-7 cells: induces dose-dependent death
[3]
  effect on MCF-7Y537S cells in long-term experiments: eradicates
MCF-7 tumors; 40 mg/kg p.o., tumors harvested before eradication
  in-vivo UPR markers in tumors: increases in P-PERK and P-eiF2alpha levels
MCF-7 tumors; mouse, in vivo
  effect on large established MCF-7 tumors: dramatic tumor regressions
ERα cell lines
  quantitative killing of ERα cell lines: quantitatively kills
